# Reference: ChEMBL document CHEMBL1201862, “PubChem BioAssay data set” (2004)
# Active and inactive are the calls of the source.
# Legend:
# [1] = molecular target: T1, Apoptotic protease-activating factor 1 (Homo sapiens, UniProt O14727); assay type: functional
# T1 sequence (O14727 whole entry): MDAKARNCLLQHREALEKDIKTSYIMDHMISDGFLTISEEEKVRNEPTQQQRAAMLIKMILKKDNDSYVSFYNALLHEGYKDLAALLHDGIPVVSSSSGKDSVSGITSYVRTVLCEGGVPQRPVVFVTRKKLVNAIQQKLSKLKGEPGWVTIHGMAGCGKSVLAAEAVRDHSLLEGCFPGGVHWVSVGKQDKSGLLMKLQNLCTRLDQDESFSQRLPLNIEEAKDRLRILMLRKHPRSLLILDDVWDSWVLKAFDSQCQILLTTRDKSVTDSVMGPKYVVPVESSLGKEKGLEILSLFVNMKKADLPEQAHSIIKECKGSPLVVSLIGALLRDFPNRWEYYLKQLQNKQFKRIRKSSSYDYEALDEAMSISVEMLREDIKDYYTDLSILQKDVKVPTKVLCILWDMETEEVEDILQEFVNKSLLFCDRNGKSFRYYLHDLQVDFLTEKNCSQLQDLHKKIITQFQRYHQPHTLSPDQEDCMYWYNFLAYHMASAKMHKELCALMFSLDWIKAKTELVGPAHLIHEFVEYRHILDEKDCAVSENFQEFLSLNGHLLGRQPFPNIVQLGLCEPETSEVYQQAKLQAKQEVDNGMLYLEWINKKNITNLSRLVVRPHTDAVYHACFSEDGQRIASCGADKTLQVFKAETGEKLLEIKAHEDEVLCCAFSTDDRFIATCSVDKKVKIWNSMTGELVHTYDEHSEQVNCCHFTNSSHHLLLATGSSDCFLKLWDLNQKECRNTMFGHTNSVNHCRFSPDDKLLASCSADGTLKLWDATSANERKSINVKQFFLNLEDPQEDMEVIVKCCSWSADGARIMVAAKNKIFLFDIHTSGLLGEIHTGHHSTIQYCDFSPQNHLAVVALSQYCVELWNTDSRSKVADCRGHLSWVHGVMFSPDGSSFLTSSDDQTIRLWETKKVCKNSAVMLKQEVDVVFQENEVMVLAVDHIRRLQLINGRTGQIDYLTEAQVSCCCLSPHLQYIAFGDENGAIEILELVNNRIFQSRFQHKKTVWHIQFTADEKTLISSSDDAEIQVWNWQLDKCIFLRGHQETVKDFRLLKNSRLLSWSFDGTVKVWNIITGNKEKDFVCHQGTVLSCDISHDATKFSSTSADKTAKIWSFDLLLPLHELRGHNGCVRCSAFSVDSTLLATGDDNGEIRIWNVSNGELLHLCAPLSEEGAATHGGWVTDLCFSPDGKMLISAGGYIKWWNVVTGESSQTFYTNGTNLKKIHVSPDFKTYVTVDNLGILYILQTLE
# [2] = molecular target: Adenosylmethionine-8-amino-7-oxononanoate aminotransferase (Mycobacterium tuberculosis, UniProt P9WQ81); assay: Mycobacterium tuberculosis BioA enzyme inhibitor Measured in Biochemical System Using Plate Reader - 2163-02_Inhibitor_Dose_CherryPick_Activity.; assay type: functional, Mycobacterium tuberculosis UT205
# [3] = molecular target: T2, Sentrin-specific protease 1 (Homo sapiens, UniProt Q9P0U3); assay: potency of human SENP1 inhibitors, dose response, biochemical, kinetic FRET (AID 651697); assay type: functional; details: read-out: IC50_Mean
# T2 sequence (Q9P0U3 whole entry): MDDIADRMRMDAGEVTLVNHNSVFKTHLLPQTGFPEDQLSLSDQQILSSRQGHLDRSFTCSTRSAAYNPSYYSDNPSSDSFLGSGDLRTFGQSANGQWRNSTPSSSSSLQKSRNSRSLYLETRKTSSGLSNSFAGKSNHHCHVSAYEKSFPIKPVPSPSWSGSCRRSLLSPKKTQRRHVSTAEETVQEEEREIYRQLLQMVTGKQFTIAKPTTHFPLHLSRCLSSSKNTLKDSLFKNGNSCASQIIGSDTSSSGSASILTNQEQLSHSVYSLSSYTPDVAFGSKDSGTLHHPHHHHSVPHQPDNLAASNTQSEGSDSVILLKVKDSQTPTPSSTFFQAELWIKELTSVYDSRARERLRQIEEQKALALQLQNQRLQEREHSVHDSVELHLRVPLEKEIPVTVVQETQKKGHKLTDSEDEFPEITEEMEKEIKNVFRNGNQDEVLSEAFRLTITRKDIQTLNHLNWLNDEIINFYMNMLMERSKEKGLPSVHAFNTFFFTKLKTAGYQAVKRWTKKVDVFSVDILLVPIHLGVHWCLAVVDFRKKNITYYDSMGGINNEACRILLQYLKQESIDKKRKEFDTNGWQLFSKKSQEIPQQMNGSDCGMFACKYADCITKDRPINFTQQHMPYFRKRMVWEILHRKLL
# [4] = molecular target: T2, Sentrin-specific protease 1; assay: Dose response confirmation of small molecule inhibitors of the catalytic domain of the SUMO protease, SENP1 in a FRET assay.; assay type: functional; details: read-out: IC50_Mean
# [5] = tested on: HEK293; assay: HEK cell cytotoxicity by LDH release, dose response, cytotoxicity control for IDE activator project, fluorescence, HEK cells (AID 588440); assay type: functional, cell-based; details: Homo sapiens;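 further: cytotoxicity by LDH release measuring loss of membrane integrity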
# [6] = tested on: HEK293; assay: optical interference in Abeta FP readout, dose response, artefact control for IDE activator project, biochemical, fluorescence polarization (AID 588442); assay type: functional, cell-based; details: Homo sapiens
# [7] = molecular target: T3, Insulin-degrading enzyme (Homo sapiens, UniProt P14735); assay: activators of endogenous IDE in HEK cells, dose response, cell-based, fluorescence polarization (AID 588439); assay type: functional
# T3 sequence (P14735 whole entry): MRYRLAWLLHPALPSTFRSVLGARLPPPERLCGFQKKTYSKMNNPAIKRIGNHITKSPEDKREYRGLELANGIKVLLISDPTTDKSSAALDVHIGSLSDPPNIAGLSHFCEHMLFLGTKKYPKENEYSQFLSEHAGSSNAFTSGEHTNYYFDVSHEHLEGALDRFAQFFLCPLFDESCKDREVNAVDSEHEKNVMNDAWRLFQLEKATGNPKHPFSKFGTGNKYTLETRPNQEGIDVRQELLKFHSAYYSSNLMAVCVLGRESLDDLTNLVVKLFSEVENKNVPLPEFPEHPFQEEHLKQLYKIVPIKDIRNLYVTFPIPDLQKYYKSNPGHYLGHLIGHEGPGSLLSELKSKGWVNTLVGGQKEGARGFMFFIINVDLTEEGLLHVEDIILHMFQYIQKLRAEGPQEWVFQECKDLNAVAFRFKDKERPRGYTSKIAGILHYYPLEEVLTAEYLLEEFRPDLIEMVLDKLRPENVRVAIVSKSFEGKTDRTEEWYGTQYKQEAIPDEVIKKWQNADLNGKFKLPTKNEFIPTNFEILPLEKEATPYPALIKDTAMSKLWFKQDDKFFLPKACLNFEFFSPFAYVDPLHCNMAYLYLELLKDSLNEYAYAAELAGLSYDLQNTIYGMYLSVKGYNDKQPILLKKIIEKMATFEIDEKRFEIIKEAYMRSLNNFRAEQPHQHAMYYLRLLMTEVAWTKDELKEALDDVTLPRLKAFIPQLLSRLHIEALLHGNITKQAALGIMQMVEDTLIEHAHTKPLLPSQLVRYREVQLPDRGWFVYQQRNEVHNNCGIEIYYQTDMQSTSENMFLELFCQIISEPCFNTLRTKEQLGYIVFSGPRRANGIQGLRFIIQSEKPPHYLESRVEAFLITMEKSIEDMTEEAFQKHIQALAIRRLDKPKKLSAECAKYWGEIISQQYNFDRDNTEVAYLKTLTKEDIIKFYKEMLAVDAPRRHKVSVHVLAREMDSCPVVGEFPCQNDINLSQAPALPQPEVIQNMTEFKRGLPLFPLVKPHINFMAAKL
# [8] = molecular target: T3, Insulin-degrading enzyme; assay: activators of recombinant IDE enzyme, dose response, counter-screen for IDE activator project, biochemical, fluorescence polarization (AID 588681)
# [9] = tested on: Streptococcus sp. 'group A'; assay: growth inhibition of control SK(-) GAS strain, dose response, counter-screen for streptokinase expression inhibitor project, luminescence, kanamycin, BacTiterGlo, confirmation (AID 1900); assay type: functional, organism-based
# [10] = molecular target: T4, Streptokinase A (Streptococcus pyogenes serotype M1, UniProt P10520); assay: S. pyogenes streptokinase expression inhibitors, potency, dose response, plasminogen activation absorbance, OD405 (AID 1914); assay type: functional, Streptococcus pyogenes M1 GAS;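 further: secreted streptokinase activity via plasminogen activation per viability signal from cell pellet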
# T4 sequence (P10520 whole entry): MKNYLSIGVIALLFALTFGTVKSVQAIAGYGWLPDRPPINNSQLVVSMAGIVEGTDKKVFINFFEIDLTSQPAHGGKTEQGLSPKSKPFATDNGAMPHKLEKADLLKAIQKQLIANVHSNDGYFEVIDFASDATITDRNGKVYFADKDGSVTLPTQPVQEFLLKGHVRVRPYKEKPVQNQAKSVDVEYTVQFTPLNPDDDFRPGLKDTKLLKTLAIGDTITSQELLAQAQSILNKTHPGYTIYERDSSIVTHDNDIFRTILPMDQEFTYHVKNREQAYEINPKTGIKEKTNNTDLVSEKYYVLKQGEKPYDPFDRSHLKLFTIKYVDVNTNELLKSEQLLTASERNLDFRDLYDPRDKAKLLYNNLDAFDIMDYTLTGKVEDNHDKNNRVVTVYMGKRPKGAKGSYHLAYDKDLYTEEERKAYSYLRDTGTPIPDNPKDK
# [11] = Luminescence Cell-Based Dose Retest to Confirm Inhibitors of Cancer Stem Cells. [Related pubchem assays (depositor defined):AID2717, AID2721]; assay type: functional; details: Homo sapiens
# [12] = tested on: Streptococcus; assay: Group A Streptococcus viability loss, dose response, counter-screen for streptokinase expression inhibitor project, luminescence, BacTiterGlo (AID 1915); assay type: functional, organism-based;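 further: potency for reduction of bacterial viability or growth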
# [13] = molecular target: T5, Fatty acid synthase (Homo sapiens, UniProt P49327); assay: FAS thioesterase domain inhibitors, dose response, biochemical, kinetic fluorescence intensity (AID 624326); assay type: functional;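 further: rate of fluorescence rise from hydrolysis of a fluorogenic O-methyl fluorescein ester substrate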
# [14] = Fluorescence-based cell-based high throughput dose response assay for inhibitors of the interaction of nucleotide-binding oligomerization domain containing 2 (NOD2) and the receptor-interacting serine-threonine kinase 2 (RIPK2).; assay type: functional; details: Homo sapiens
# [15] = molecular target: T5, Fatty acid synthase; assay: FAS thioesterase domain inhibitors, dose response, biochemical, endpoint fluorescence intensity, uHTS hits (AID 624327); assay type: functional;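 further: fluorescence from hydrolysis of an O-methyl fluorescein acyl ester substrate by the enzyme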
# [16] = molecular target: Arf-GAP with SH3 domain, ANK repeat and PH domain-containing protein 1 (Homo sapiens, UniProt Q9ULH1); assay type: functional;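 further: biochemical fluorescence polarization dose–response screen measuring inhibition of ASAP1; ASAP1 GAP domain stimulating GTP hydrolysis by truncated human ARF1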
# [17] = molecular target: T6, Interleukin-8 (Homo sapiens, UniProt P10145); assay: Dose Response confirmation of uHTS small molecule hits for cystic fibrosis induced NFkb Inhibitors in a PAF-induced IL8 counterscreen.; assay type: functional; details: read-out: IC50_Mean
# T6 sequence (P10145 whole entry): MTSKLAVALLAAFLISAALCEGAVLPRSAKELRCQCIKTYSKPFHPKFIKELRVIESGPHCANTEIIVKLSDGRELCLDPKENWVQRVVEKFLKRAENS
# [18] = molecular target: T7, DNA repair and recombination protein RAD54-like (Homo sapiens, UniProt Q92698); assay: inhibitors of human RAD54 branch migration, confirmation, biochemical, fluorescence, cherry-picked samples, dose series (AID 651657); assay type: functional
# T7 sequence (Q92698 whole entry): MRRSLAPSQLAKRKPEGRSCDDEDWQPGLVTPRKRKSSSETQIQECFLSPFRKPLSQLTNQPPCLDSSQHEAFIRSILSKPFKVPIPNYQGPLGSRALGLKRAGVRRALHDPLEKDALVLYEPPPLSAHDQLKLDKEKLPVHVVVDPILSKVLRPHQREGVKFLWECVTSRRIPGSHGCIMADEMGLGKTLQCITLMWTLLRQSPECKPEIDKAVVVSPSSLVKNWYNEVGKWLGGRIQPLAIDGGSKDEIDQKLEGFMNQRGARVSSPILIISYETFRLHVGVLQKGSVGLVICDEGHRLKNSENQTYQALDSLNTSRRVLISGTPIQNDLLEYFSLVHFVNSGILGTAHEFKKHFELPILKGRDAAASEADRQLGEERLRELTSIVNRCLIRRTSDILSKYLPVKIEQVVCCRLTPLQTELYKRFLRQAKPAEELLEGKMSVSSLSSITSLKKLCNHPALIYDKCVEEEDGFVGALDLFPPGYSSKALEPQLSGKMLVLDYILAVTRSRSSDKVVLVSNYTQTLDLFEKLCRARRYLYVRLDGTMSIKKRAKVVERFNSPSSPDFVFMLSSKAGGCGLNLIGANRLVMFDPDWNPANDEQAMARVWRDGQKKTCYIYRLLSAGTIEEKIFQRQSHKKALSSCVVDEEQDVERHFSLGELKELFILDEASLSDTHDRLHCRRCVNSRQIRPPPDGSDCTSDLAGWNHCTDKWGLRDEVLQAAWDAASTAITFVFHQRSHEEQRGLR
# T5 sequence (P49327 whole entry, the tested form may be a part): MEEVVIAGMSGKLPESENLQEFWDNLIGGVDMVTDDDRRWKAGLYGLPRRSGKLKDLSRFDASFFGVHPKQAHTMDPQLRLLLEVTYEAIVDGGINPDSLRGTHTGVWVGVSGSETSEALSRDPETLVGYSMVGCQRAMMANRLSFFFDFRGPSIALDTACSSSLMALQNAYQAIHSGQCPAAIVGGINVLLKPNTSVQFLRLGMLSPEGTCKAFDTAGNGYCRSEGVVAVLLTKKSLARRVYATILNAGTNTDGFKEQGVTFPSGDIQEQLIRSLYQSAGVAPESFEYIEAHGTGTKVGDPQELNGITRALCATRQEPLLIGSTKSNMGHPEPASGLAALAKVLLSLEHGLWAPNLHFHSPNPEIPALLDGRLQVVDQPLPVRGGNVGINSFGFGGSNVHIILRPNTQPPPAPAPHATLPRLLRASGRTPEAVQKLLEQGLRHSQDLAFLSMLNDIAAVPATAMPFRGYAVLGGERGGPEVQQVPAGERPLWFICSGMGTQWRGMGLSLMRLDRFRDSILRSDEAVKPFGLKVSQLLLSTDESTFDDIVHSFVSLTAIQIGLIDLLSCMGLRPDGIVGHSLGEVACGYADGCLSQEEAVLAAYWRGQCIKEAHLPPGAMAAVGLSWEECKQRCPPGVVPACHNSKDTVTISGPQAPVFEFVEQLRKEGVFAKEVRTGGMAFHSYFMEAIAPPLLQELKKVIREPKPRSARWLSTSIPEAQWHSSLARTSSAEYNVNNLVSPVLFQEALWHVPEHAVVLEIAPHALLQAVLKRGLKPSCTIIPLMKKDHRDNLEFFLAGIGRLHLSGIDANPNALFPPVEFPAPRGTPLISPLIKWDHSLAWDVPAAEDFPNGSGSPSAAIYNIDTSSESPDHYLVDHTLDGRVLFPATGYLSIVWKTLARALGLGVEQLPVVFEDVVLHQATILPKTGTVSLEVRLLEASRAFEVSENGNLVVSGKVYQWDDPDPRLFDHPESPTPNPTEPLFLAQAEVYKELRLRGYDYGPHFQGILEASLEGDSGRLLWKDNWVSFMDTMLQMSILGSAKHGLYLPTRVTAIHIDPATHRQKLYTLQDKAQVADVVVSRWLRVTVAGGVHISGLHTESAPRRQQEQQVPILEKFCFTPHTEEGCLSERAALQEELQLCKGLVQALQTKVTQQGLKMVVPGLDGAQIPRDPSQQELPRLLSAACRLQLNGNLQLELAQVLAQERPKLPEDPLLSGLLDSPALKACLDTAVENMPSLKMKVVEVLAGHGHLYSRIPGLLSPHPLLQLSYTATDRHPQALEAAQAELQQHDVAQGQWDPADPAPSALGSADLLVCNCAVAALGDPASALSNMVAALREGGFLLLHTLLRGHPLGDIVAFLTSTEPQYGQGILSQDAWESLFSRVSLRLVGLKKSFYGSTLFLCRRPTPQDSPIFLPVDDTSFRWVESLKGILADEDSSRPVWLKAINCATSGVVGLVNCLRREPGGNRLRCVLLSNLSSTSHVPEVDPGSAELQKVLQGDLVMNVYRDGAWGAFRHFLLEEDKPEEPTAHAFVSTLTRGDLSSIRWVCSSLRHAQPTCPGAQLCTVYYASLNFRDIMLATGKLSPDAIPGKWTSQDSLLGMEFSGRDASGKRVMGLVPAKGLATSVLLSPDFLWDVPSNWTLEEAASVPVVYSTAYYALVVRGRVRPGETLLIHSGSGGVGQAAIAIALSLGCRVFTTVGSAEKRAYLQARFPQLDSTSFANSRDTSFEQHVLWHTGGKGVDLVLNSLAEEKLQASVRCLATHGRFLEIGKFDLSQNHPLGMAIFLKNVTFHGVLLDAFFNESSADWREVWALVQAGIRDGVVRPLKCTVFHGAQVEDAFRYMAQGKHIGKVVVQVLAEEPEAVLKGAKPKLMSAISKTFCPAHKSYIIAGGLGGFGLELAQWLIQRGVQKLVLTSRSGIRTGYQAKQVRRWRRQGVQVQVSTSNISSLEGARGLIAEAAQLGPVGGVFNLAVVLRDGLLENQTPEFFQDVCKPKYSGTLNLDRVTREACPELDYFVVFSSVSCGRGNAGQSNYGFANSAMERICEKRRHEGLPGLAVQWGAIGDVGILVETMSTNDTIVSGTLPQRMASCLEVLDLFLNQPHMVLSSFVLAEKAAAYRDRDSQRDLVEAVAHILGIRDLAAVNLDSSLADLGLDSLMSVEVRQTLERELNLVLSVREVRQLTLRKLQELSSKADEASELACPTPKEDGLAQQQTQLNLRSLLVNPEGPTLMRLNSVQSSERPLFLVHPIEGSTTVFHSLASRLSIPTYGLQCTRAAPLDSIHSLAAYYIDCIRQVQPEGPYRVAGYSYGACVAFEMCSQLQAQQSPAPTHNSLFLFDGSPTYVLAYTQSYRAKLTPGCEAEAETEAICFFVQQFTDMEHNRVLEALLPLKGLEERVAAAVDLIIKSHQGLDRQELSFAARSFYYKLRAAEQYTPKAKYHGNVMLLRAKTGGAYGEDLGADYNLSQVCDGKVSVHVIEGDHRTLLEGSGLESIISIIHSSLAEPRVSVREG
# Sequence of Arf-GAP with SH3 domain, ANK repeat and PH domain-containing protein 1 (Q9ULH1 whole entry, the tested form may be a part): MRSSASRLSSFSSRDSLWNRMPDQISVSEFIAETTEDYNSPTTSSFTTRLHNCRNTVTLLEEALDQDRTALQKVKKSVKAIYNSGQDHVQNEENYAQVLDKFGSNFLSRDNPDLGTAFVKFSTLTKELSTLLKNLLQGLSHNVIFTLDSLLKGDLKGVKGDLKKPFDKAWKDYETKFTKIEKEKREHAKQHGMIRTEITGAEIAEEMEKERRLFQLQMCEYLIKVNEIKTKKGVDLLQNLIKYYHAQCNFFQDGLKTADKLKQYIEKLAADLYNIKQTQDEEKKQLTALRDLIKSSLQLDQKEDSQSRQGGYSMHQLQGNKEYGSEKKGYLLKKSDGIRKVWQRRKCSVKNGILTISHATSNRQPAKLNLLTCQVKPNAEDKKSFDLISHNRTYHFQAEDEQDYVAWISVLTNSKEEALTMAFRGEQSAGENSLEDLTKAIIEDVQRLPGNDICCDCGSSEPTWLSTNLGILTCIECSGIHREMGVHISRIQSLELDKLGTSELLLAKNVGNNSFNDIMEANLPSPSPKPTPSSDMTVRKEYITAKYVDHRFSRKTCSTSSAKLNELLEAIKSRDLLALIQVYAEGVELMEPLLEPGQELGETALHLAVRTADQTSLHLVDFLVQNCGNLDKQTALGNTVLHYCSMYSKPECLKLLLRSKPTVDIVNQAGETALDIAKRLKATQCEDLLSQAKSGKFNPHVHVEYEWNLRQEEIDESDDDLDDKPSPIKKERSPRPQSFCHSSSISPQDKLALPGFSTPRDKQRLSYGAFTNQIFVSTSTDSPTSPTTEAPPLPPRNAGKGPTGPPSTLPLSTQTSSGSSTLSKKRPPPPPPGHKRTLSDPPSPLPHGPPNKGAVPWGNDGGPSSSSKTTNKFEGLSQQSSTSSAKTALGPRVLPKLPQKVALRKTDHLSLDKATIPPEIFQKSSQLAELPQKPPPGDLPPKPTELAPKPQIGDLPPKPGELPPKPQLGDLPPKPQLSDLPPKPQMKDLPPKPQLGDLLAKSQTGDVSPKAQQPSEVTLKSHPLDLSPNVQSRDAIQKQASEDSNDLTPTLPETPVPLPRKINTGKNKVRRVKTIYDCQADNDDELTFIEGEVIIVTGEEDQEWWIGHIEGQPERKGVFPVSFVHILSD
# Sequence of Adenosylmethionine-8-amino-7-oxononanoate aminotransferase (P9WQ81 whole entry): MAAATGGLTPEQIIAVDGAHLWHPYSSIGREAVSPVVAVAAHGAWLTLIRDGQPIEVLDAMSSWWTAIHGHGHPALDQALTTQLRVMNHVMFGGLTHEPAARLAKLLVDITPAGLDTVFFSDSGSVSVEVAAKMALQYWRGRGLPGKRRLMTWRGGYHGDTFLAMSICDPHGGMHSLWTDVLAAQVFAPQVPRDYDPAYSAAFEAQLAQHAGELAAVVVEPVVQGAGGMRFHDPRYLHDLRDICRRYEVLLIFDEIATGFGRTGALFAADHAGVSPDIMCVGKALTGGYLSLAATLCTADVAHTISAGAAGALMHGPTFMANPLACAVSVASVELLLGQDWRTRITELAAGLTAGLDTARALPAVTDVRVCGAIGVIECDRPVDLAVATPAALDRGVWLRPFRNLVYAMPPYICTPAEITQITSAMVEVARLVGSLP
smiles,measurement,setting,value
CCCN(CC(=O)Nc1ccccc1C)C(=O)CCCOc1ccc(Br)cc1,IC50,[1],> 100 µM (inactive)
Cc1nc2nc(SCC(=O)N3CCOCC3)nn2c(C)c1Cc1ccccc1,AC50,[2],430 nM (active)
CN1CCN(C2=Nc3c(Cl)cc(Cl)c4cccc2c34)CC1,IC50,[3],6.95 µM (active)
same,IC50,[4],10.2 µM (active)
CSc1ccccc1OCc1cc(C(=O)NCCn2nc(C)cc2C)no1,IC50,[5],> 89.2 µM (inactive)
same,EC50,[6],> 54.7 µM (inactive)
same,EC50,[7],> 54.7 µM (inactive)
same,EC50,[8],> 54.7 µM (inactive)
CC(C)=CCCC1(C)C=Cc2c(c(C)cc3c2[nH]c2cc(O)ccc23)O1 (stereo unspecified),EC50,[9],2.61 µM (active)
same,IC50,[5],15.3 µM (inactive)
same,EC50,[6],> 55.9 µM (inactive)
same,EC50,[7],41 µM (inactive)
same,EC50,[10],> 150 µM (not active)
same,AC50,[11],5.38 µM (active)
same,EC50,[12],5.07 µM (active)
same,EC50,[8],> 54.7 µM (inactive)
CCOC(=O)[C@]12Cc3cc(OC)ccc3[C@H]1N(C1CCCCC1)C(=O)c1ccccc12,IC50,[13],6.5 µM (active)
same,IC50,[14],2.5 µM (active)
same,IC50,[15],8.86 µM (active)
O=C(N/N=C/c1cccnc1)c1cc2c(ccc3ccccc32)o1,IC50,[16],19.9 µM (inactive)
C/C=C/c1ccc2c(c1)O[C@@H](CN(C)C(=O)Nc1ccc(OC)cc1)[C@@H](C)CN([C@@H](C)CO)S2(=O)=O,AC50,[2],2080 nM (active)
Cc1c(-c2ccccc2)oc2c(C(=O)N3CCN(c4ccc([N+](=O)[O-])cc4)CC3)cccc2c1=O,IC50,[17],40.2 µM (inactive)
COc1cccc2c1-c1c(O)cccc1C2=O,IC50,[3],37.7 µM (inactive)
same,AC50,[18],66.7 µM (active)
same,IC50,[4],18.6 µM (active)
O=C(CSc1ccccc1)Nc1ccc(-c2nc3ccccc3[nH]2)cc1,IC50,[16],14.7 µM (inactive)
